Laboratory results taken from patent publication US11053226B2, “KRAS G12C inhibitors and methods of using the same” (Amgen Inc., priority 2018, dated 2021).
Read-outs that look alike come from different tables or passages of the source.

Experiments:
[1] = test system: Phosphorylation of ERK1/2 in MIA PaCa-2 cells; experiment: Phospho-ERK1/2 MSD Assay; format: cell-based; conditions: MiaPaCa-2 cells
Procedure: (§1) For compounds in Table 9, the following assay conditions were employed:
Phospho-ERK1/2 MSD Assay:
Sixteen hours prior to compound treatment, MIA PaCa-2 cells were seeded in 96-well cell culture plates at a density of 25,000 cells/well and incubated at 37° C., 5% CO2. […] Following compound treatment, cells were stimulated with 10 ng/mL EGF (Roche 11376454001) for 10 min, washed with ice-cold Dulbecco's phosphate-buffered saline, no Ca^2+ or Mg^2+ (ThermoFisher Scientific 14190144), and then lysed in RIPA buffer (50 mM Tris-HCl pH 7.5, 1% Igepal, 0.5% sodium deoxycholate, 150 mM NaCl, and 0.5% sodium dodecyl sulfate) containing protease inhibitors (Roche 4693132001) and phosphatase inhibitors (Roche 4906837001). […] Assay plates were read on a Meso Scale Discovery Sector Imager 6000, and data were analyzed using a 4-parameter logistic model to calculate IC50 values.

[2] = test system: Phosphorylation of ERK1/2 in A549 cells; experiment: Phospho-ERK1/2 MSD Assay (A549); format: cell-based
[3] = biological target: GDP-bound KRAS protein (aa 1-169), containing both G12C and C118A amino acid substitutions (Homo sapiens (Human), UniProt P01116, C118A/G12C); experiment: Coupled Nucleotide Exchange Assay; format: biochemical; conditions: read-out: Coupled Exchange IC50 (2 h); 2 h compound pre-incubation
Chain of GDP-bound KRAS protein (aa 1-169), containing both G12C and C118A amino acid substitutions (P01116 other isoform, or with tags, fused parts or gaps G12C/C118A): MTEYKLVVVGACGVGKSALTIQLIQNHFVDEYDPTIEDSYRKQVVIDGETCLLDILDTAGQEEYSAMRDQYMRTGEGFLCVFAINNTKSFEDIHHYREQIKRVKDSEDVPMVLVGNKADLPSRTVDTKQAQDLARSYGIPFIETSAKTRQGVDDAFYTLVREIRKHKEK
Procedure: as §1
Coupled Nucleotide Exchange Assay:
The assay plates were then read on a PerkinElmer EnVision Multilabel Reader, using AlphaScreen® technology, and data were analyzed using a 4-parameter logistic model to calculate IC50 values.

[4] = Homo sapiens, MIA PaCa-2, 4 h, read-out: pERK IC50 (4 h, MiaPaCa-2), 4 h compound treatment
[5] = Homo sapiens, A549, 4 h, read-out: pERK IC50 (4 h, A549), 4 h compound treatment
[6] = read-out: pERK IC50 (4 h, A549), 4 h compound treatment

Row | Structure (SMILES) | IC50 [1, 4] [µM] | IC50 [2, 5] [µM] | other results
1 | C=CC(=O)N1CC(NC(=O)Cn2cc(C(=O)NCCC(=O)Nc3ccccc3CC)c3cc(Br)ccc32)C1 [Example 167] | > 100 | > 100 | –
2 | C=CC(=O)N1CC(NC(=O)Cn2c(C)c(C(=O)NCCC(=O)Nc3ccccc3CC)c3cc(Br)ccc32)C1 [Example 179] | > 100 | > 100 | –
3 | C=CC(=O)N1CC(NC(=O)Cn2cc(C(=O)N3CCN(c4ncccc4C)CC3)c3cc(Br)ccc32)C1 [Example 61] | 7.06 | > 33.3 | –
4 | C=CC(=O)N1CC(NC(=O)Cn2cc(C(=O)On3nnc4cccnc43)c3cc(Br)ccc32)C1 [Example 175] | > 100 | > 100 | –
5 | C=CC(=O)N1CC(NC(=O)Cn2cc(C(=O)N3CCN(c4ccc(OC)cn4)CC3)c3cc(Br)ccc32)C1 [Example 93] | 16.5 | > 100 | –
6 | C=CC(=O)N1CC(NC(=O)Cn2cc(C(=O)NCC(c3sccc3C)N(C)C)c3cc(Br)ccc32)C1 (stereo not shown) [Example 127] | 34.3 | > 100 | –
7 | C=CC(=O)N1CC(NC(=O)Cn2cc(C(=O)N3CCN(c4ccccn4)CC3)c3cc(Br)ccc32)C1 [Example 60] | – | > 100 | –
8 | C=CC(=O)N1CC(N(C)C(=O)Cn2c(C)c(C(=O)N3CCN(c4ccc(C)cn4)CC3)c3cc(Br)ccc32)C1 [Example 47] | 4.16 | > 100 | –
9 | C=CC(=O)N1CC(C)(NC(=O)Cn2c(C)c(C(=O)N3CCc4c(cccc4OC)C3)c3cc(Br)ccc32)C1 [Example 77] | 11.6 | 10.2 | –
10 | C=CC(=O)N1CC(NC(=O)Cn2cc(C(=O)N3CCc4c(C#N)cccc4C3)c3cc(Br)ccc32)C1 [Example 134] | 38 | > 100 | –
11 | C=CC(=O)N1CC(NC(=O)Cn2cc(C(=O)N3CCN(c4ccc([N+](=O)[O-])cn4)CC3)c3cc(Br)ccc32)C1 [Example 99] | 18.9 | > 100 | –
12 | C=CC(=O)N1CC(NC(=O)Cn2cc(C(=O)N3CCc4c(ccnc4OC)C3)c3cc(Br)ccc32)C1 [Example 89] | 14.9 | > 100 | –
13 | C=CC(=O)N1CC(NC(=O)Cn2c(C)c(C(=O)N3CCN(c4ccc([N+](=O)[O-])cn4)CC3)c3cc(Br)ccc32)C1 [Example 46] | 4.08 | > 100 | –
14 | C=CC(=O)N1CC(NC(=O)Cn2cc(C(=O)N3CCc4c(OC)ccc(Br)c4C3)c3cc(Br)ccc32)C1 [Example 157] | 53.6 | 42.5 | –
15 | C=CC(=O)N1CC(NC(=O)Cn2cc(C(=O)NCCC(=O)Nc3cc(C)ccc3C)c3cc(Br)ccc32)C1 [Example 169] | > 100 | > 100 | –
16 | C=CC(=O)N1CC(NC(=O)Cn2cc(C(=O)N3CCc4cc(Br)ccc4C3)c3cc(Br)ccc32)C1 [Example 106] | – | – | IC50 ([1]; read-out: pERK IC50 (4 h, MiaPaCa-2), 4 h compound treatment): 22.2 µM; IC50 [2, 6]: 44.7 µM
17 | C=CC(=O)N1CC(NC(=O)Cn2cc(C(=O)N3CCc4c(ccc(Cl)c4Cl)C3)c3cc(Br)ccc32)C1 [Example 96] | 17.4 | 30.5 | –
18 | C=CC(=O)N1CC(N2CC[C@@H](n3c(C)c(C(=O)N4CCc5c(cccc5OC)C4)c4cc(Br)ccc43)C2=O)C1 [Example 50] | 4.81 | > 33.3 | –
19 | C=CC(=O)N1CC(NC(=O)Cn2c(C)c(C(=O)N3CCN(c4ccc(C)cn4)CC3)c3cc(Br)ccc32)C1 [Example 29] | 2.66 | > 100 | –
20 | C=CC(=O)N1CC(NC(=O)Cn2c(C)c(C(=O)N3CCc4c(cccc4OC)C3)c3cc(Cl)cc(C)c32)C1 [Example 3-1, 2-(5-Chloro-3-((5-methoxy-3,4-dihydro-2(1H)-isoquinolinyl)carbonyl)-2,7-dimethyl-1H-indol-1-yl)-N-(1-(2-propenoyl)-3-azetidinyl)acetamide] | – | > 100 | –
21 | C=CC(=O)N1CC(NC(=O)Cn2cc(C(=O)N3CCOC(c4ccccc4)C3)c3cc(Br)ccc32)C1 (stereo not shown) [Example 138] | 40.5 | > 100 | –
22 | C=CC(=O)N1CC(NC(=O)Cn2cc(C(=O)N3CCc4cc(F)ccc4C3)c3cc(Br)ccc32)C1 [Example 114] | – | > 100 | –
23 | C=CC(=O)N1CC(NC(=O)Cn2c(C)c(C(=O)C3CCc4ccccc4C3)c3cc(Br)ccc32)C1 (stereo not shown) [Example 65] | 7.99 | 3.47 | –
24 | C=CC(=O)N1CC(NC(=O)Cn2cc(C(=O)NCCc3nc4c(s3)CCCC4)c3cc(Br)ccc32)C1 [Example 171] | > 100 | > 100 | –
25 | C=CC(=O)N1CC(NC(=O)Cn2c(C)c(C(=O)N3CCN(c4ccc(C#N)cn4)C[C@H]3C)c3cc(Br)ccc32)C1 [Example 16] | 1.79 | > 100 | –
26 | C=CC(=O)N1CC(NC(=O)Cn2c(C)c(C(=O)N3CCc4ncccc4C3)c3cc(Br)ccc32)C1 [Example 116] | 28.5 | > 100 | –

Row | Structure (SMILES) | IC50 [1, 4] [µM] | IC50 [2, 5] [µM] | other results
27 | C=CC(=O)N1CC(NC(=O)Cn2cc(C(=O)NCCN(C)c3cccc(C)c3)c3cc(Br)ccc32)C1 [Example 173] | > 100 | > 100 | –
28 | C=CC(=O)N1CC(NC(=O)Cn2c3c(c4cc(Br)ccc42)CCN(C(=O)OC(C)(C)C)C3)C1 [Example 100] | – | – | IC50 ([1]; Homo sapiens, MIA PaCa-2, read-out: pERK IC50 (4 h), 4 h compound treatment): 19.4 µM; IC50 ([2]; Homo sapiens, read-out: pERK IC50 (4 h), 4 h compound treatment): > 33.3 µM
29 | C=CC(=O)N1CC(NC(=O)Cn2cc(C(=O)OC)c3cc(Br)ccc32)C1 [Example 108] | 23.5 | > 100 | –
30 | C=CC(=O)N1CC(NC(=O)Cn2cc(C(=O)N3CCc4cc(Br)ccc4C3)c3cc(Br)ccc32)C1 [Example 104] | 21.7 | – | IC50 [2, 6]: 14.6 µM
31 | C=CC(=O)N1CC(NC(=O)Cn2cc(C(=O)NCCc3c(OC)ccc4ccccc34)c3cc(Br)ccc32)C1 [Example 168] | > 100 | > 100 | –
32 | C=CC(=O)N1CC(NC(=O)Cn2cc(C(=O)N3CCc4ccccc4C3)c3cc(Br)ccc32)C1 [Example 129] | – | > 100 | –
33 | C=CC(=O)N1CC(NC(=O)Cn2cc(C(=O)N3CCO[C@H](c4ccccc4)C3)c3cc(Br)ccc32)C1 [Example 103] | 21.6 | > 100 | –
34 | C=CC(=O)N1CC(NC(=O)Cn2cc(C(=O)N3CCc4c(Br)cc(C)cc4C3)c3cc(Br)ccc32)C1 [Example 120] | 30.8 | 28.4 | –
35 | C=CC(=O)N1CC(NC(=O)Cn2cc(C(=O)N3CCc4c(F)cccc4C3)c3cc(Br)ccc32)C1 [Example 118] | – | > 100 | –
36 | C=CC(=O)N1CC(NC(=O)Cn2c(C)c(C(=O)N3CCc4c(cccc4OC)C3)c3cc(Br)ccc32)C1C (stereo not shown) [Example 44] | – | > 100 | –
37 | C=CC(=O)N1CC(NC(=O)Cn2c(C)c(C(=O)N3CCOC(C)(C)C3)c3cc(Br)ccc32)C1 [Example 64] | 7.74 | > 100 | –
38 | C=CC(=O)N1CC(NC(=O)Cn2cc(C(=O)NCCOc3ccccc3C)c3cc(Br)ccc32)C1 [Example 156] | 53.4 | > 100 | –
39 | C=CC(=O)N1CC(NC(=O)Cn2cc(C(=O)NCCc3nccs3)c3cc(Br)ccc32)C1 [Example 123] | 32.4 | > 100 | –
40 | C=CC(=O)N1CC(NC(=O)Cn2cc(C(=O)N(C)Cc3ccccc3)c3cc(Br)ccc32)C1 [Example 155] | – | > 100 | –
41 | C=CC(=O)N1CC(NC(=O)Cn2cc(C(=O)NCc3ccccc3)c3cc(Br)ccc32)C1 [Example 163] | – | > 100 | –
42 | C=CC(=O)N1CC(NC(=O)Cn2cc(C(=O)NCCCc3nc(C)cs3)c3cc(Br)ccc32)C1 [Example 172] | > 100 | > 100 | –
43 | C=CC(=O)N1CC(NC(=O)Cn2cc(C(=O)N3CC4(CCN4c4ccccn4)C3)c3cc(Br)ccc32)C1 [Example 148] | 50.2 | > 100 | –
44 | C=CC(=O)N1CC(NC(=O)Cn2c(C)c(C(=O)N3CCN(c4ccc(C(F)(F)F)cn4)CC3)c3cc(Br)ccc32)C1 [Example 40] | 3.42 | 44.6 | –
45 | C=CC(=O)N1CC(NC(=O)Cn2cc(C(=O)N3CCN(c4ccc([N+](=O)[O-])cc4)CC3)c3cc(Br)ccc32)C1 [Example 166] | > 100 | > 100 | –
46 | C=CC(=O)N1CC(NC(=O)Cn2c(C)c(C(=O)N3C(C)COCC3C)c3cc(Br)cc(C)c32)C1 (stereo not shown) [Example 26] | 2.48 | > 33.3 | –
47 | C=CC(=O)N1CC(N(C)C(=O)Cn2cc(C(=O)N3CCc4c(ccnc4OC)C3)c3c(Cl)c(Cl)ccc32)C1 [Example 7] | 1.33 | – | IC50 [3]: 0.45 µM
48 | C=CC(=O)N1CC(NC(=O)Cn2cc(C(=O)N3CCN(c4cc(C)ccn4)CC3)c3cc(Br)ccc32)C1 [Example 79] | 11.8 | > 100 | –
49 | C=CC(=O)N1CC(NC(=O)Cn2c(C)c(C(=O)N3CCN(c4ccc(C)cn4)CC3)c3cc(Cl)cc(C)c32)C1 [Example 24] | – | > 100 | –
50 | C=CC(=O)N1CC(NC(=O)Cn2cc(C(=O)NCCc3ccccc3)c3cc(Br)ccc32)C1 [Example 140] | – | > 100 | –
51 | C=CC(=O)N1CC(NC(=O)Cn2cc(C(=O)N3CCc4c(cccc4OC)C3)c3cc(Br)cc(C)c32)C1 [Example 82] | – | > 100 | –
